Experimental data as given in US20220017833A1, “Methods and Compositions for Scavenging Sulfides from Hydrocarbon Fluids and Aqueous Streams” (Nexgen Oilfield Chemicals, LLC, priority 2019, published 2022).

Experiments:
Hot Spray Fouling Test = type: physicochemical; details: Table 5; glyoxy alkyl diaminol in water and MeOH only
Text: In many gas applications, the scavenger must by sprayed into a hot gas stream. This can create insoluble materials (“solids”) as the scavenger system evaporates and/or decomposes. These solids accumulate and foul (interfere with the function) of the vessel, line, or equipment to which the scavenger is being fed. This precludes the scavenger being used in that application. Referring now to FIG. 2, a spray test system 200 is utilized to for the Hot Spray Fouling Test. In one embodiment, an injection atomizer apparatus 22 is employed, wherein the scavenger formulation (not separately labeled) is sprayed onto a sheet 26 through an atomizing nozzle 24, like that used to introduce the scavenger into a gas line, tank, or vessel. The material is first placed in a double boiler (not shown) and brought to 180° F. The heated liquid is then placed in the injection atomizer apparatus 22 and sprayed horizontally onto an aluminum sheet 26 twelve inches away. The chemical drains gravitationally down the sheet where it is funneled into a beaker 28 for collection. If solids are observed on the sheet 26 or in the draining or collected fluid, the sample fails. If no solids are observed, it passes the test.

[1] = Spent Water Flowability Test; type: physicochemical; parameters: key: Pass: A homogeneous, single-phase solution or thin layer of readily flowable non-sticking liquid constitutes a pass.; Fail: Any solids or thick, sticky insoluble liquid is a fail.; PASS: A homogeneous, single-phase solution or thin layer of readily flowable non-sticking liquid constitutes a pass.; FAIL: Any solids or thick, sticky insoluble liquid is a fail; details: Table 5; glyoxy alkyl diaminol in water and MeOH only
Protocol: In field applications, spent scavenger is disposed of through a wastewater system. Spent scavenger might be soluble in the scavenger system but insoluble in wastewater. If it cannot be disposed of, it is not suitable for use. To ensure wastewater processing runs trouble free, spent scavenger passing the Spent Solids Fouling Test is then added to 39 times its weight in water (2.5%) and examined again for insoluble solids and viscous, sticky liquids that might foul the wastewater system. Any solids or thick, sticky insoluble liquid is a fail. A homogeneous, single-phase solution or thin layer of readily flowable non-sticking liquid constitutes a pass.

[2] = Short Reaction Time Capacity Test; details: 20 g test; for Min to BT / Min to FD: 3.00 g BuOH, GIDA 6.68 g as GID, 3.32 g water
Text: Referring now to FIG. 1, therein is schematically depicted a sulfide scavenger testing system 100 comprising a gas source 2, a flow regulator 4, gas treatment vessel 6, and a sulfide measurement device 8. In one testing embodiment, gas (not shown) is flowed from gas source 2 via gas feed piping 10 into flow regulator 4, which regulates gas flow to gas treatment vessel 6 via regulated gas feed piping 12. The regulated gas flows into gas treatment vessel 6 via a bottom inlet 14 thereof, where it comes into contact with a volume of liquid 16 comprising a sulfide scavenger system (not separately labeled). The gas, having been treated by the liquid, flows out of a top end 18 of gas treatment vessel 6 and flows into sulfide measurement device 8 via treated gas outlet piping 20.
In one embodiment, gas flow from the flow regulator 4 is controlled such that the gas is flowed into the gas treatment vessel 6 at a flow rate of 100 mL/min. up to 500 mL/min. In one embodiment, a gas sparging device, such as a fine pore frit (not shown), is utilized to better distribute the gas into the scavenger liquid. In one embodiment, the gas treatment vessel 6 contains about 20 g of a liquid H2S scavenger, such as one or more diaminols/diaminacetals in a chemical system as described above. In one aspect, to the extent possible, H2S and/or CO2 are scavenged from the gas by the scavenger and the treated (“sweet”) gas exits top end 18 of treatment vessel 6. In one embodiment, sulfide measurement device 8 monitors the concentration of H2S leaving treatment vessel 6. in the gas phase. In other embodiments (not shown), a CO2 measurement device may be similarly employed to monitor the concentration of CO2 leaving treatment vessel 6 in the gas phase.
In one embodiment, gas is flowed through sulfide scavenger testing system 100 until the outlet H2S concentration reaches a 4,000 ppm target, at which point the test is concluded. This relative time duration before the target is reached is used to compare H2S scavenger capacity given the kinetics of each sulfide scavenger system. The longer the duration, the better the capacity.
The fine bubbles produced rise slowly, providing plenty of time, plenty of surface area, and a short path through which the H2S must diffuse to the scavenger in the liquid 16. Detector 8 on the outlet line 20 is used to measure H2S concentration in the exiting gas. The times to first detection (FD), at a threshold of 15 ppm, and to complete breakthrough (BT), at the detector saturation of 4000 ppm (0.4%), are recorded. This test is designed to measure the effective scavenging capacity in applications with long contact times.
This test is the same as the Long Reaction Time Capacity Test, but without the gas sparging device, so as to produce larger bubbles, and at a higher feed rate of 200 mL/min, after the first 8 minutes at 100 mL/min. The larger bubbles rise quickly through the liquid 16, providing little time, little surface area, and a long path through which the H2S must diffuse to the scavenger in the liquid. This test is designed to measure the effective scavenging capacity in applications with short contact times. It is far more reaction rate dependent than the Long Reaction Time Capacity and so is a more critical and differentiating test.
With triazine, one H2S reacts twice with the same molecule of triazine, replacing one amine, so the rate is “first order”, meaning proportional to the concentration of triazine.

[3] = Spent Solids Fouling Test; type: physicochemical; details: Table 5, glyoxy alkyl diaminol in water and MeOH only
Text: In every application, the active component of the scavenger system reacts with H2S to from a reaction product. Once all the active scavenger has been so reacted, it is spent. […] Thioethers are much less water soluble than amines, so the reaction products are often insoluble. Thioether bridges also connect spent scavenger molecules to each other, thereby forming insoluble polymeric solids. These solids accumulate and foul (interfere with the function) of the vessel, line, or equipment to which the scavenger is being fed. […] If any solids or insoluble viscous liquids are observed poorly dispersed in the spent scavenger system or clinging to the sides of the vessel, the scavenging system employed in that Long Reaction Time Capacity Test fails this test. A homogeneous, single-phase solution or thin layer of readily flowable non-sticking liquid constitutes a pass.

[4] = Eq/test GIDAc 0.114, GIDA 0.076 (8.00 g MeOH, 2.00 g BuOH)
[5] = Eq/test Triazine 0.068, GIDAc 0.157, GIDA 0.076 (7.50 g MeOH, 2.50 g BuOH)
[6] = GIDAc 8.00 g as GID, 9.00 g MeOH, 8.00 g MeOH, 2.00 g BuOH
[7] = Triazine 7.50 g + 12.50 g water, GIDAc 11.00 g as GID, 6.00 g MeOH, 7.50 g MeOH, 2.50 g BuOH

Q: For `CC(C)NC(O)C(O)NC(C)C` (stereo not drawn) [GIDA, 1,2-bis[(propan-2-yl)amino]ethane-1,2-diol], which “Hot Spray Fouling” value (Hot Spray Fouling Test) is on record?
A: Fail

Q: What about the “Spent Water Flowability” value [1] of the same molecule?
A: Fail

Q: And the “Min/Eq BT” value [2, 4]?
A: 607 Min/Eq

Q: What about the “Min/Eq FD” value [2, 4] of the same molecule?
A: 515 Min/Eq

Q: What about the “Min/Eq BT” value [2, 5] of the same molecule?
A: 541 Min/Eq

Q: What about the “Min/Eq FD” value [2, 5] of the same molecule?
A: 462 Min/Eq

Q: What about the “Min to BT” value [2, 6] of the same molecule?
A: 46 min

Q: What about the “Min to FD” value [2, 6] of the same molecule?
A: 39 min

Q: And the “Min to BT” value [2, 7]?
A: 41 min

Q: And the “Min to FD” value [2, 7]?
A: 35 min

Q: What about the “Spent Solids Fouling” value ([3]; listed as i-Pr) of the same molecule?
A: Pass

Q: What about the “Spent Solids Fouling” value ([3]; listed as iso-propylamine) of the same molecule?
A: passed
